In ChEMBL document CHEMBL1151360, “Antibiotic principle of Eupatorium capillifolium” (1981):
Calls of active or inactive are those of the source. The calls are words filed in the database; no cut-off is given here.

What was measured:
Bacillus subtilis [1] = experiment: Antibacterial activity against Bacillus subtilis ATCC 6633 at 750 ug/mL in synthetic medium by disc-plate assay; format: functional; conditions: read-out: IZ
Bacillus subtilis [2] = experiment: Antibacterial activity against Bacillus subtilis ATCC 6633 at 750 ug/mL in synthetic medium by disc-plate assay in presence of 30 ug/mL glutamic acid; format: functional
Bacillus subtilis [3] = experiment: Antibacterial activity against Bacillus subtilis ATCC 6633 at 500 ug/mL in synthetic medium by disc-plate assay; format: functional; conditions: read-out: IZ
Escherichia coli [4] = experiment: Antibacterial activity against Escherichia coli ATCC 10536 in synthetic medium by disc-plate assay; format: functional, organism-based
Bacillus subtilis [5] = experiment: Antibacterial activity against Bacillus subtilis ATCC 6633 at 750 ug/mL in synthetic medium by disc-plate assay in presence of 10 ug/mL glutamic acid; format: functional
Bacillus subtilis [6] = experiment: Antibacterial activity against Bacillus subtilis ATCC 6633 at 750 ug/mL in synthetic medium by disc-plate assay in presence of 3000 ug/mL glutamic acid; format: functional
Bacillus subtilis [7] = experiment: Antibacterial activity against Bacillus subtilis ATCC 6633 at 60 ug/mL in synthetic medium by disc-plate assay; format: functional; conditions: read-out: IZ
Bacillus subtilis [8] = experiment: Antibacterial activity against Bacillus subtilis ATCC 6633 at 750 ug/mL in synthetic medium by disc-plate assay in presence of 5000 ug/mL glutamic acid; format: functional
Bacillus subtilis [9] = experiment: Antibacterial activity against Bacillus subtilis ATCC 6633 at 30 ug/mL in synthetic medium by disc-plate assay; format: functional; conditions: read-out: IZ
Bacillus subtilis [10] = experiment: Antibacterial activity against Bacillus subtilis ATCC 6633 at 120 ug/mL in synthetic medium by disc-plate assay; format: functional; conditions: read-out: IZ
Bacillus subtilis [11] = experiment: Antibacterial activity against Bacillus subtilis ATCC 6633 at 750 ug/mL in synthetic medium by disc-plate assay in presence of 250 ug/mL glutamic acid; format: functional
Bacillus subtilis [12] = experiment: Antibacterial activity against Bacillus subtilis ATCC 6633 at 250 ug/mL in synthetic medium by disc-plate assay; format: functional; conditions: read-out: IZ
Escherichia coli [13] = experiment: Antibacterial activity against Escherichia coli ATCC 10536 in complex natural medium by disc-plate assay; format: functional, organism-based
Staphylococcus aureus = experiment: Antibacterial activity against Staphylococcus aureus ATCC 6538P in complex natural medium by disc-plate assay; format: functional, organism-based
Bacillus subtilis [14] = experiment: Antibacterial activity against Bacillus subtilis ATCC 6633 at 750 ug/mL in synthetic medium by disc-plate assay in presence of 1000 ug/mL glutamic acid; format: functional
Bacillus subtilis [15] = experiment: Antibacterial activity against Bacillus subtilis ATCC 6633 at 750 ug/mL in complex natural medium by disc-plate assay; format: functional, organism-based
Bacillus subtilis [16] = experiment: Antibacterial activity against Bacillus subtilis ATCC 6633 at 750 ug/mL in synthetic medium by disc-plate assay in presence of 120 ug/mL glutamic acid; format: functional
Bacillus subtilis [17] = experiment: Antibacterial activity against Bacillus subtilis ATCC 6633 at 750 ug/mL in synthetic medium by disc-plate assay in presence of 500 ug/mL glutamic acid; format: functional
Bacillus subtilis [18] = experiment: Antibacterial activity against Bacillus subtilis ATCC 6633 at 750 ug/mL in synthetic medium by disc-plate assay in presence of 60 ug/mL glutamic acid; format: functional
Bacillus subtilis [19] = experiment: Antibacterial activity against Bacillus subtilis ATCC 6633 at 750 ug/mL in synthetic medium by disc-plate assay in presence of 750 ug/mL glutamic acid; format: functional
Bacillus subtilis [20] = experiment: Antibacterial activity against Bacillus subtilis ATCC 6633 at 15 ug/mL in synthetic medium by disc-plate assay; format: functional; conditions: read-out: IZ

## C=C(C(=O)O)[C@@H]1CC[C@@]2(C)CCCC(=C)[C@@H]2C1 [COSTIC ACID]
Bacillus subtilis [1]
  zone of inhibition at 750 µg/mL: 26 mm
Bacillus subtilis [2]
  inhibition (INH): 40%
  inhibition zone (IZ): 24 mm
Bacillus subtilis [3]
  zone of inhibition at 500 µg/mL: 24 mm
Escherichia coli [4]
  Activity: inactive
Bacillus subtilis [5]
  inhibition (INH): 0%
  inhibition zone (IZ): 26 mm
Bacillus subtilis [6]
  inhibition (INH): 89%
  inhibition zone (IZ): 18 mm
Bacillus subtilis [7]
  zone of inhibition at 60 µg/mL: 16.5 mm
Bacillus subtilis [8]
  inhibition (INH): 89%
  inhibition zone (IZ): 18 mm
Bacillus subtilis [9]
  zone of inhibition at 30 µg/mL: 14.5 mm
Bacillus subtilis [10]
  zone of inhibition at 120 µg/mL: 19 mm
Bacillus subtilis [11]
  inhibition (INH): 74%
  inhibition zone (IZ): 21 mm
Bacillus subtilis [12]
  zone of inhibition at 250 µg/mL: 22 mm
Escherichia coli [13]
  Activity: inactive
Staphylococcus aureus
  Activity: inactive
Bacillus subtilis [14]
  inhibition (INH): 89%
  inhibition zone (IZ): 18 mm
Bacillus subtilis [15]
  Activity: inactive
Bacillus subtilis [16]
  inhibition (INH): 74%
  inhibition zone (IZ): 21 mm
Bacillus subtilis [17]
  inhibition (INH): 80%
  inhibition zone (IZ): 20 mm
Bacillus subtilis [18]
  inhibition (INH): 60%
  inhibition zone (IZ): 22.5 mm
Bacillus subtilis [19]
  inhibition at 750 µg/mL: 85%
Bacillus subtilis [19]; read-out: IZ
  zone of inhibition at 750 µg/mL: 19 mm
Bacillus subtilis [20]
  zone of inhibition at 15 µg/mL: 0 mm
